Data on two molecules can be found in patent publication US20200247812A1 (Integral Biosciences Private Limited, priority 2018, published 2020).

What all share (type): cell-based
One assay concerns HCT116. Put plainly: Cell viability assay (resazurin), HCT116. The following applies: Homo sapiens, HCT-116, 72-144 hr. How it is done:
(§1) Different cell lines such as pancreatic, (MIA PaCa-2; ATCC®CRL-1420™ & and Panc-1; CRL-1469™), liver carcinoma (HepG2; ATCC® HB-8065™), lung epithelial carcinoma (A549; ATCC® CCL-185™) and others were seeded in their respective medium (DMEM, Cat #10569044, MEM, Cat #41090036; RPMI, Cat #22400089; all with 10% FBS, Gibco, ThermoFisher) at a cell count of 3000 cells per 100 μl per well in a 96 well edge plate (167425; ThermoFisher). Cells were allowed to grow at 37° C. for 24 hr in 5% CO2 (culture conditions) in a Nuaire incubator (humidified). Serially diluted compounds (100 μl) were added to the culture plate 24 hr later and the cultures were further incubated in culture conditions for specified time depending on doubling time of specific cell line (ranging from 72-144 hr). Experiment was terminated at the completion of incubation time with the drug by replacing the medium with 100 μl of 1 mM of resazurin (R7017; Sigma) prepared in respective culture medium and the plates were further incubated in culture conditions for 4 hr. Fluorescence was then measured using a multimodal plate reader (Biotek Synergy Neo) at an excitation wavelength of 535 nm and emission wavelength of 590 nm to obtain relative fluorescence units. Data analysis was done by subtracting the background fluorescence (only medium blank) value from each reading and then normalizing with the vehicle control (DMSO treated cells) to obtain percent survival/proliferation. Percent survival at different doses was used to calculate IC50 by fitting the curve to the “four-parameter variable slope logistic model” using Prism Graph Pad.

A further assay concerns A549. The assay can be described thus: Cell viability assay (resazurin), A549. The settings on record: Homo sapiens, 72-144 hr. How it is done: as §1
The subject of the next assay is MiaPaCa-2. The assay can be described thus: Cell viability assay (resazurin), MiaPaCa-2. The following applies: Homo sapiens, MIA PaCa-2, 72-144 hr. How it is done:
(§2) Different cell lines such as pancreatic, (MIA PaCa-2; ATCC®CRL-1420™ & and Panc-1; CRL-1469™), liver carcinoma (HepG2; ATCC® HB-8065™), lung epithelial carcinoma (A549; ATCC® CCL-185™) and others were seeded in their respective medium (DMEM, Cat #10569044, MEM, Cat #41090036; RPMI, Cat #22400089; all with 10% FBS, Gibco, ThermoFisher) at a cell count of 3000 cells per 100 μl per well in a 96 well edge plate (167425; ThermoFisher). Cells were allowed to grow at 37° C. for 24 hr in 5% CO2 (culture conditions) in a Nuaire incubator (humidified). Serially diluted compounds (100 μl) were added to the culture plate 24 hr later and the cultures were further incubated in culture conditions for specified time depending on doubling time of specific cell line (ranging from 72-144 hr). […] Fluorescence was then measured using a multimodal plate reader (Biotek Synergy Neo) at an excitation wavelength of 535 nm and emission wavelength of 590 nm to obtain relative fluorescence units. Data analysis was done by subtracting the background fluorescence (only medium blank) value from each reading and then normalizing with the vehicle control (DMSO treated cells) to obtain percent survival/proliferation. […]

The test system of the next assay is HT29. Put plainly: Cell viability assay (resazurin), HT29. The following applies: Homo sapiens, HT-29, 72-144 hr. How it is done: as §2
A further assay relates to MCF7. Put plainly: Cell viability assay (resazurin), MCF7. The following applies: Homo sapiens, 72-144 hr. How it is done:
as §1

Another assay deals with THP1. Put plainly: Cell viability assay (resazurin), THP1. The following applies: Homo sapiens, THP-1, 72-144 hr. How it is done:
as §1

The next assay concerns Panc-10.05. Put plainly: Cell viability assay (resazurin), Panc-10.05. The following applies: Homo sapiens, Panc1005, 72-144 hr. How it is done:
as §1

Assay [1] concerns mIFN-γ release by activated mouse splenocytes. The assay can be described thus: Mouse splenocyte assay: reversal of TGF-β suppressed, CD3e/CD28 induced mIFN-γ release (ELISA). The settings on record: Balb/c splenocytes, anti-CD3e/CD28, mouse TGF-β 10 ng/ml, 72 hr, read-out: Inhibition of mIFN-γ release by activated Mouse Splenocyte, IC50. How it is done: IC50 values of compounds for reversal of TGF-β suppressed and CD3e/CD28 induced mIFNγ release was determined in mouse splenocytes isolated from Balb/c mice cultured in RPMI, Cat #22400089; 10% FBS, Gibco, ThermoFisher). Mouse splenocytes (2×10^5 cells/well) were activated with Anti-mouse CD3e (2.5 μg/ml, coated overnight at 4° C.; Cat #14-0032-82, eBioscience) and then incubated with serial dilutions of compounds (3 fold, 8 point dose response starting at 3 μM) in the presence of mouse TGF-β (10 ng/ml; Cat #14-8342-80, ebiosciences) for 30 min at 37° C., 5% CO2 in an incubator (cell culture conditions) prior to treating them with Anti-mouse CD28 (0.1 μg/ml soluble; Cat #16-0281-82, eBiosciences). Splenocytes were further incubated under cell culture conditions for 72 hr after which the supernatant was harvested, diluted to 1:50 and ELISA was performed as per the manufacturer's protocol (mIFN-γ kit; Cat #555138 & 550534, BD Biosciences). Plates were read in Biotek plate reader by measuring absorbance at 450 nm.
The reversal of TGF-β suppressed mIFN-γ release by compounds was quantified by first obtaining the amount of mIFN-γ (in pg/ml) released at each concentration of the compound with respect to the mIFN-γ standard. […] The IC50 was calculated by fitting the curve to the “four-parameter variable slope logistic model” using Prism Graph Pad.

Assay [2] relates to phosphorylation of Smad-2 in THP-1 cells. Put plainly: Inhibition of phosphorylation of Smad-2 in THP-1 cells (Phospho-Smad2 ELISA). The following applies: 1.5 h, human TGF-β 20 ng/ml, 90 min, read-out: pSmad2 IC50. How it is done:
IC50 values of compounds for determining inhibition of phosphorylation of Smad-2 in THP-1 cells (ATCC, Cat # ATCC® TIB-202™) cultured in RPMI medium, (Cat #22400089; with 10% FBS, Gibco, ThermoFisher). THP-1 cells (1.0×10^6 cells/well; 6 well plate) were incubated with serial dilutions of compounds (3 fold, 5 point dose response starting at 10 μM) for 60 min at 37° C., 5% CO2 in an incubator (cell culture conditions) prior to treating them with Recombinant Human TGF-β (20 ng/ml soluble; Cat #100-21, Peprotech) for 90 min. The cells were then pelleted and processed for protein estimation and evaluation of pSmad using ELISA kit from Cell Signaling (PathScan(R) Phospho-Smad2 (Ser465/467) Sandwich ELISA; Cat #7348C) as per manufacturer's protocol. Data analysis was done by subtracting the background absorbance (only negative control) value from each reading and then normalizing with the vehicle control (DMSO treated cells) to obtain percent levels of pSmad-2. Percent inhibition thus obtained (by subtracting expression levels of pSmad from 100) at different doses was used to calculate IC50 by fitting the curve to the “four-parameter variable slope logistic model” using Prism Graph Pad.

A further assay relates to 22Rv1. Put plainly: Cell viability assay (resazurin), 22Rv1. The following applies: Homo sapiens, 72-144 hr. How it is done: as §1
In another assay the test system is AsPC-1. The assay can be described thus: Cell viability assay (resazurin), AsPC-1. The settings on record: Homo sapiens, ASPC1, 72-144 hr. How it is done:
as §1

Consider `CC(C)c1[nH]c(=O)c(-c2cc(Cl)ccc2F)cc1Nc1ccnc2[nH]ccc12` [Compound 1.50, 5-((1H-pyrrolo[2,3-b]pyridin-4-yl)amino)-3-(5-chloro-2-fluorophenyl)-6-isopropylpyridin-2(1H)-one], for which the IC50 in the assay with HCT116 is 1.97 µM; in the assay with A549 it was above 30 µM; in the assay on MiaPaCa-2, above 30 µM; in the assay with HT29, 3.82 µM; in the assay on MCF7, above 10 µM; in the assay on THP1, 13.4 µM. The IC50 was 4.72 µM in the assay on Panc-10.05, 0.107 µM in assay [1] and 0.539 µM in assay [2].
For `CC(=O)Nc1cc(Nc2cc(-c3cc(Cl)ccc3F)c(=O)[nH]c2C(C)C)ccn1` [Compound 1.48, N-(4-((5-(5-chloro-2-fluorophenyl)-2-isopropyl-6-oxo-1,6-dihydropyridin-3-yl)amino)pyridin-2-yl)acetamide], the IC50 in the assay with HCT116 is above 30 µM; in the assay on A549, above 30 µM; in the assay with MiaPaCa-2, above 30 µM; with 22Rv1, above 30 µM; with AsPC-1 it was above 30 µM; in the assay on HT29 it was 14.7 µM. Besides, the IC50 was above 10 µM in the assay on MCF7; above 30 µM in the assay on THP1; above 30 µM in the assay with Panc-10.05; 0.156 µM in assay [1]; 0.123 µM in assay [2].
